Laboratory results reported in paper PMC3853684 (Scientific Reports, 2013).
Blank lines part the entries; values can stand above or below the compound they belong to.

Tests used:
[1] = humans, cited from earlier work
[2] = Plasma OXT concentration after intranasal OXT; assay type: in vivo; details: male, human, inhaled or intranasal, 24 IU
[3] = intravenous injection, animal-based work; cited from earlier work
[4] = cited from earlier work
[5] = intranasal 16 or 24 IU; cited from earlier work
[6] = monkeys, starting level, cervical puncture; cited from earlier work
[7] = cited from earlier work; remark: listed apart in the source

Compound: arginine vasopressin [arginine vasopressin (AVP)]
- time to increase in CSF concentrations ([1]; intranasal 40 IU): up to 60 min
- increase in CSF concentrations (fold) ([1]; intranasal 80 IU): up to 4 fold
- time to significant increase in CSF concentrations ([1]; intranasal 80 IU): 10 min

- Tmax [2]: 15 min
- level at 1.5 h ([2]; SD): 0.0123 ± 0.006 ng/mL
Compound: CC[C@H](C)[C@@H]1NC(=O)[C@H](Cc2ccc(O)cc2)NC(=O)[C@@H](N)CSSC[C@@H](C(=O)N2CCC[C@H]2C(=O)N[C@@H](CC(C)C)C(=O)NCC(N)=O)NC(=O)[C@H](CC(N)=O)NC(=O)[C@H](CCC(N)=O)NC1=O [OXT, oxytocin]
- fraction of the peptide that crossed the blood-brain barrier (BBB) [3]: approximately 0.01%
- time of increases in OXT plasma concentrations ([4]; intranasal 24 IU): 30 to 40 min
- time of peak elevated OXT plasma concentrations ([4]; intranasal OXT 30 IU, three male volunteers): 10 to 40 min
- duration of increase in OXT saliva concentrations [5]: up to 7 h
- OXT CSF concentration before increase [6]: around 20 pg/ml
- increase of half-life in CSF (compared to plasma) [7]: 30–40 fold
